Assay results reported in publication PMC8016998, “Identification of potential therapeutic antimicrobial peptides against Acinetobacter baumannii in a mouse model of pneumonia” (Scientific Reports, 2021).
No end group written: not given here.

Legend:
[1] = system: Acinetobacter baumannii 17,978; assay type: cell-based; details: 24 h at 37 °C, triplicate;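 note: CLSI broth microdilution in 96-well polypropylene plates, MBC taken as lowest concentration giving no growth when clear wells were subcultured on LB agar for 24 h at 37 °C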
Experimental: (§1) MBC were determined by extending the MIC procedure in sterilized 96-well polypropylene microtiter plates according to the broth microdilution guidelines of the Clinical and Laboratory Standards Institute with some modification[47]. […] In addition, 10 µL was drawn from each well with no visible turbidity onto LB agar plates and incubated for 24 h at 37 °C. The lowest concentration showing no visible growth on agar subculture was used as the MBC value. All experiments were performed in triplicate.

[2] = system: Acinetobacter baumannii 19,606; assay type: cell-based; details: 24 h at 37 °C, triplicate
Experimental: as §1

[3] = system: MDRAB clinical strain J49; assay type: cell-based, Acinetobacter baumannii; details: strain J49, 24 h 37 °C
Experimental: as §1

[4] = system: MDRAB clinical strain K2; assay type: cell-based, Acinetobacter baumannii; details: strain K2, 24 h 37 °C
[5] = system: MDRAB clinical strain Y92; assay type: cell-based, Acinetobacter baumannii; details: strain Y92, 24 h 37 °C
[6] = system: MDRAB clinical strain W11; assay type: cell-based, Acinetobacter baumannii; details: strain W11, 24 h 37 °C
Experimental: as §1

[7] = system: MDRAB clinical strain U80; assay type: cell-based, Acinetobacter baumannii; details: strain U80, 24 h 37 °C
[8] = system: MDRAB clinical strain U95; assay type: cell-based, Acinetobacter baumannii; details: strain U95, 24 h 37 °C
[9] = system: MDRAB clinical strain O59; assay type: cell-based, Acinetobacter baumannii; details: strain O59, 24 h 37 °C
[10] = system: MDRAB clinical strain D29; assay type: cell-based, Acinetobacter baumannii; details: strain D29, 24 h 37 °C
Experimental: as §1

[11] = system: MDRAB clinical strain L87; assay type: cell-based, Acinetobacter baumannii; details: strain L87, 24 h 37 °C
Experimental: as §1

[12] = system: MDRAB clinical strain AO80; assay type: cell-based, Acinetobacter baumannii; details: strain AO80, 24 h 37 °C
Experimental: as §1

[13] = system: MDRAB clinical strain AS40; assay type: cell-based, Acinetobacter baumannii; details: strain AS40, 24 h 37 °C
[14] = system: MDRAB clinical strain AK29; assay type: cell-based, Acinetobacter baumannii; details: strain AK29, 24 h 37 °C
Experimental: as §1

[15] = system: MDRAB clinical strain AK61; assay type: cell-based, Acinetobacter baumannii; details: strain AK61, 24 h 37 °C
Experimental: as §1

[16] = system: MDRAB clinical strain AE5; assay type: cell-based, Acinetobacter baumannii; details: strain AE5, 24 h 37 °C
[17] = system: MDRAB clinical strain AE6; assay type: cell-based, Acinetobacter baumannii; details: strain AE6, 24 h 37 °C
Experimental: as §1

[18] = system: MDRAB clinical strain AF11; assay type: cell-based, Acinetobacter baumannii; details: strain AF11, 24 h 37 °C
[19] = system: MDRAB clinical strain AF12; assay type: cell-based, Acinetobacter baumannii; details: strain AF12, 24 h 37 °C
[20] = system: MDRAB clinical strain AF93; assay type: cell-based, Acinetobacter baumannii; details: strain AF93, 24 h 37 °C
[21] = system: MDRAB clinical strain AG51; assay type: cell-based, Acinetobacter baumannii; details: strain AG51, 24 h 37 °C
Experimental: as §1

[22] = system: MDRAB clinical strain AN10; assay type: cell-based, Acinetobacter baumannii; details: strain AN10, 24 h 37 °C
Experimental: as §1

[23] = system: MDRAB clinical strain AL87; assay type: cell-based, Acinetobacter baumannii; details: strain AL87, 24 h 37 °C
Experimental: as §1

[24] = system: MDRAB clinical strain AZ93; assay type: cell-based, Acinetobacter baumannii; details: strain AZ93, 24 h 37 °C
Experimental: as §1

[25] = 10 µL from wells without turbidity onto LB agar

GLFGKLIKKFGRKAISYAVKKARGKH [Latarcin 2a]
8 µg/mL: MIC ([5]; broth microdilution, LB) | MBC ([5]; subculture on LB agar) | MIC ([6]; broth microdilution, LB) | MBC ([6]; subculture on LB agar) | MIC ([10]; broth microdilution, LB) | MIC ([12]; broth microdilution, LB) | MBC ([12]; subculture on LB agar) | MIC ([13]; broth microdilution, LB) | MBC ([13]; subculture on LB agar) | MIC ([14]; broth microdilution, LB) | MBC ([14]; subculture on LB agar) | MIC ([15]; broth microdilution, LB) | MBC ([15]; subculture on LB agar) | MIC ([16]; broth microdilution, LB) | MBC ([16]; subculture on LB agar) | MIC ([17]; broth microdilution, LB) | MBC ([17]; subculture on LB agar) | MIC ([18]; broth microdilution, LB) | MBC ([18]; subculture on LB agar) | MIC ([19]; broth microdilution, LB) | MBC ([19]; subculture on LB agar) | MIC ([20]; broth microdilution, LB) | MBC ([20]; subculture on LB agar) | MIC ([24]; broth microdilution, LB) | MBC ([24]; subculture on LB agar)
64 µg/mL: MIC ([3]; broth microdilution, LB) | MBC ([3]; subculture on LB agar) | MIC ([4]; broth microdilution, LB) | MBC ([4]; subculture on LB agar)
4 µg/mL: MIC ([21]; broth microdilution, LB) | MBC ([21]; subculture on LB agar) | MIC ([22]; broth microdilution, LB) | MBC ([22]; subculture on LB agar) | MIC ([23]; broth microdilution, LB) | MBC ([23]; subculture on LB agar)
16 µg/mL: MBC [1, 25] | MIC ([1]; broth microdilution (CLSI, modified), LB medium, 5 × 10^5 CFU/mL, lowest concentration with no visible growth) | MBC [2, 25] | MIC ([2]; broth microdilution (CLSI, modified), LB medium, 5 × 10^5 CFU/mL) | MIC ([7]; broth microdilution, LB) | MBC ([7]; subculture on LB agar) | MIC ([8]; broth microdilution, LB) | MBC ([8]; subculture on LB agar) | MIC ([9]; broth microdilution, LB) | MBC ([9]; subculture on LB agar) | MBC ([10]; subculture on LB agar) | MIC ([11]; broth microdilution, LB) | MBC ([11]; subculture on LB agar)
